Experimental data from ChEMBL document CHEMBL3885881, “DrugMatrix”.

Organism: Rattus norvegicus
Assay: DrugMatrix - Regimen: Daily Repeat
Type: toxicity, organism-based, Sprague-Dawley
Parameters: regimen Daily Repeat, gender Male, age 6-8 weeks
Details: in vivo, po, route oral GAVAGE, vehicle 100 % WATER; for ABSOLUTE BASOPHIL / ABSOLUTE EOSINOPHIL / ABSOLUTE LYMPHOCYTE / ABSOLUTE MONOCYTE / ABSOLUTE SEGMENTED NEUTROPHIL / BASOPHIL / EOSINOPHIL / ERYTHROCYTE COUNT / HEMATOCRIT / HEMOGLOBIN / LEUKOCYTE COUNT / LYMPHOCYTE / MEAN CORPUSCULAR HEMOGLOBIN / MEAN CORPUSCULAR HEMOGLOBIN CONCENTRATION / NEUTROPHIL / NUCLEATED RED BLOOD CELLS / PLATELET COUNT: tissue Blood; for ALANINE AMINOTRANSFERASE / ALBUMIN / ALKALINE PHOSPHATASE / ASPARTATE AMINOTRANSFERASE / BLOOD UREA NITROGEN / CARBON DIOXIDE / CHLORIDE / CREATINE PHOSPHOKINASE / CREATININE / GLUCOSE / LACTATE DEHYDROGENASE / LIPASE / PHOSPHORUS / POTASSIUM / SODIUM / TOTAL BILIRUBIN / TOTAL PROTEIN / URIC ACID / CHOLESTEROL: tissue Plasma
[1] = 0 mg/kg, 72 h, dose level Control, time 3 day
[2] = 0 mg/kg, 120 h, dose level Control, time 5 day
[3] = 94 mg/kg, 72 h, dose level High, time 3 day

In the case of `CN1[C@@H]2CC[C@H]1C[C@@H](OC(=O)C(CO)c1ccccc1)C2` (some centres not stated) [ATROPINE], the “ABSOLUTE BASOPHIL” value [1] is reported as 0 CELLS/uL, the “ABSOLUTE EOSINOPHIL” value [1] is reported as 33.67 CELLS/uL and the “ABSOLUTE LYMPHOCYTE” value [1] is reported as 11257.17 CELLS/uL. The “ABSOLUTE MONOCYTE” value [1] was 72.17 CELLS/uL, the “ABSOLUTE SEGMENTED NEUTROPHIL” value [1] was 1220.33 CELLS/uL and the BASOPHIL [1] was 0%. For the same compound, the EOSINOPHIL [1] was 0.33%, the “ERYTHROCYTE COUNT” value [1] was 5 x10E6/uL and the HEMATOCRIT [1] was 32.62%. For the same compound, the HEMOGLOBIN [1] was 12.83 G/DL, the “LEUKOCYTE COUNT” value [1] was 12.58 x10E3/uL and the LYMPHOCYTE [1] was 89%. For the same compound, the “MEAN CORPUSCULAR HEMOGLOBIN” value [1] was 25.67 pg, the “MEAN CORPUSCULAR HEMOGLOBIN CONCENTRATION” value [1] was 39.35 G/DL and the NEUTROPHIL [1] was 10%. For the same compound, the “NUCLEATED RED BLOOD CELLS” value [1] was 0 /100WBC, the “PLATELET COUNT” value [1] was 1162.5 x10E3/uL and the “ALANINE AMINOTRANSFERASE” value [1] was 45.33 u/L. For the same compound, the ALBUMIN [1] was 3.95 G/DL, the “ALKALINE PHOSPHATASE” value [1] was 356.17 u/L and the “ASPARTATE AMINOTRANSFERASE” value [1] was 81 u/L. The “BLOOD UREA NITROGEN” value [1] was 11 mg/dL, the “CARBON DIOXIDE” value [1] was 29.83 mmol/L and the CHLORIDE [1] was 97.8 MEQ/L. For the same compound, the “CREATINE PHOSPHOKINASE” value [1] was 211.33 u/L, the CREATININE [1] was 0.11 mg/dL and the GLUCOSE [1] was 164.67 mg/dL. For the same compound, the “LACTATE DEHYDROGENASE” value [1] was 143.17 u/L, the LIPASE [1] was 10.17 u/L and the PHOSPHORUS [1] was 10.88 mg/dL. For the same compound, the POTASSIUM [1] was 6.08 MEQ/L, the SODIUM [1] was 141.54 MEQ/L and the “TOTAL BILIRUBIN” value [1] was 0.23 mg/dL. The “TOTAL PROTEIN” value [1] was 5.65 G/DL, the “URIC ACID” value [1] was 1 mg/dL and the “ABSOLUTE BASOPHIL” value [2] was 0 CELLS/uL. The “ABSOLUTE EOSINOPHIL” value [2] was 48.67 CELLS/uL, the “ABSOLUTE LYMPHOCYTE” value [2] was 9267.83 CELLS/uL and the “ABSOLUTE MONOCYTE” value [2] was 194.33 CELLS/uL. The “ABSOLUTE SEGMENTED NEUTROPHIL” value [2] was 572.5 CELLS/uL, the BASOPHIL [2] was 0% and the EOSINOPHIL [2] was 0.33%. The “ERYTHROCYTE COUNT” value [2] was 5.41 x10E6/uL, the HEMATOCRIT [2] was 36.17% and the HEMOGLOBIN [2] was 13.9 G/DL. For the same compound, the “LEUKOCYTE COUNT” value [2] was 10.08 x10E3/uL, the LYMPHOCYTE [2] was 92.17% and the “MEAN CORPUSCULAR HEMOGLOBIN” value [2] was 25.73 pg. For the same compound, the “MEAN CORPUSCULAR HEMOGLOBIN CONCENTRATION” value [2] was 38.45 G/DL, the NEUTROPHIL [2] was 5.67% and the “NUCLEATED RED BLOOD CELLS” value [2] was 0.33 /100WBC. For the same compound, the “PLATELET COUNT” value [2] was 1122.33 x10E3/uL, the “ALANINE AMINOTRANSFERASE” value [2] was 52.83 u/L and the ALBUMIN [2] was 4.12 G/DL. For the same compound, the “ALKALINE PHOSPHATASE” value [2] was 367.33 u/L, the “ASPARTATE AMINOTRANSFERASE” value [2] was 88 u/L and the “BLOOD UREA NITROGEN” value [2] was 12.67 mg/dL. For the same compound, the “CARBON DIOXIDE” value [2] was 33.67 mmol/L, the CHLORIDE [2] was 97 MEQ/L and the CHOLESTEROL [2] was 67.5 mg/dL. The “CREATINE PHOSPHOKINASE” value [2] was 358.67 u/L, the CREATININE [2] was 0.14 mg/dL and the GLUCOSE [2] was 152.33 mg/dL. For the same compound, the “LACTATE DEHYDROGENASE” value [2] was 180 u/L, the LIPASE [2] was 10.5 u/L and the PHOSPHORUS [2] was 10.63 mg/dL. For the same compound, the POTASSIUM [2] was 5.99 MEQ/L, the SODIUM [2] was 141.85 MEQ/L and the “TOTAL BILIRUBIN” value [2] was 0.2 mg/dL. For the same compound, the “TOTAL PROTEIN” value [2] was 6.18 G/DL, the “URIC ACID” value [2] was 0.52 mg/dL and the “ABSOLUTE BASOPHIL” value [3] was 0 CELLS/uL. For the same compound, the “ABSOLUTE EOSINOPHIL” value [3] was 0 CELLS/uL, the “ABSOLUTE LYMPHOCYTE” value [3] was 12944 CELLS/uL and the “ABSOLUTE MONOCYTE” value [3] was 33.33 CELLS/uL. The “ABSOLUTE SEGMENTED NEUTROPHIL” value [3] was 789.33 CELLS/uL, the BASOPHIL [3] was 0% and the EOSINOPHIL [3] was 0%. For the same compound, the “ERYTHROCYTE COUNT” value [3] was 5.37 x10E6/uL, the HEMATOCRIT [3] was 33.77% and the HEMOGLOBIN [3] was 13.4 G/DL. The “LEUKOCYTE COUNT” value [3] was 13.77 x10E3/uL, the LYMPHOCYTE [3] was 93.67% and the “MEAN CORPUSCULAR HEMOGLOBIN” value [3] was 24.93 pg. For the same compound, the “MEAN CORPUSCULAR HEMOGLOBIN CONCENTRATION” value [3] was 39.67 G/DL, the NEUTROPHIL [3] was 6% and the “NUCLEATED RED BLOOD CELLS” value [3] was 0 /100WBC. For the same compound, the “PLATELET COUNT” value [3] was 1031.67 x10E3/uL, the “ALANINE AMINOTRANSFERASE” value [3] was 59.33 u/L and the ALBUMIN [3] was 4.03 G/DL. The “ALKALINE PHOSPHATASE” value [3] was 322.67 u/L, the “ASPARTATE AMINOTRANSFERASE” value [3] was 115 u/L and the “BLOOD UREA NITROGEN” value [3] was 11 mg/dL. The “CARBON DIOXIDE” value [3] was 26.33 mmol/L, the CHLORIDE [3] was 102.5 MEQ/L and the CHOLESTEROL [3] was 72.67 mg/dL. The “CREATINE PHOSPHOKINASE” value [3] was 681.33 u/L, the CREATININE [3] was 0.13 mg/dL and the GLUCOSE [3] was 149.67 mg/dL. For the same compound, the “LACTATE DEHYDROGENASE” value [3] was 237 u/L, the LIPASE [3] was 10.67 u/L and the PHOSPHORUS [3] was 9.43 mg/dL. For the same compound, the POTASSIUM [3] was 5.53 MEQ/L, the SODIUM [3] was 142.3 MEQ/L and the “TOTAL BILIRUBIN” value [3] was 0.3 mg/dL. The “TOTAL PROTEIN” value [3] was 5.6 G/DL and the “URIC ACID” value [3] was 1 mg/dL.
